# Legend:
# [1] = target: ligand binding domain of human FXR (Homo sapiens (Human), UniProt Q96RI1); assay: FXR ligand binding assay (LanthaScreen TR-FRET, SRC2-2 peptide recruitment); conditions: for pEC50: -log EC50, concentration required to produce 50% activation; for Emax: extent of activation relative to GW4064, read-out: % Efficacy
# [2] = target: human Farnesoid X receptor ligand-binding domain/Gal4 DNA binding domain chimera (Homo sapiens (Human), UniProt Q96RI1); assay: Cell-based assay of FXR activation (FXR-UAS-bla HEK 293T beta-lactamase reporter); conditions: cellular FXR beta-lactamase reporter assay; for Emax: HEK-293T, extent of activation relative to GW4064, read-out: % Efficacy; for EC50: FXR-UAS-bla HEK 293T cells, 16 h, pEC50 = -log EC50
# human Farnesoid X receptor ligand-binding domain/Gal4 DNA binding domain chimera, sequence (Q96RI1 262-486, stated change not applied): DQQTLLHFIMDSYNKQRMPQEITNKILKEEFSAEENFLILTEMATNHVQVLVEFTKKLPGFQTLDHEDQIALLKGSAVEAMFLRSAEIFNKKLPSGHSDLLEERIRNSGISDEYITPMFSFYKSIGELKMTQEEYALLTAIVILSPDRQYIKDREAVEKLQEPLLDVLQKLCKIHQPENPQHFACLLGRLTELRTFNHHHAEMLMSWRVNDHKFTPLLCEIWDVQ
# human Farnesoid X receptor ligand-binding domain/Gal4 DNA binding domain chimera, sequence (P04386 1-147 partner): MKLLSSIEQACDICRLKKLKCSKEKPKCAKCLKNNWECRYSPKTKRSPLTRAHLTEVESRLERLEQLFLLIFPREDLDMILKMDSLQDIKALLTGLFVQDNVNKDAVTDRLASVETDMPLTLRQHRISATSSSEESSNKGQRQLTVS
# Experimental: FXR activation was measured using a cell line and procedure obtained from Life Technologies (Cat # K1691). FXR-UAS-bla HEK 293T cells contain a human Farnesoid X receptor ligand-binding domain/Gal4 DNA binding domain chimera stably integrated into the CellSensor® UAS-bla HEK 293T cell line. The CellSensor® UAS-bla HEK 293T contains a beta-lactamase reporter gene under control of a UAS response element stably integrated into HEK 293T cells. Activation of FXR by bound ligands results in transcriptional activation of the beta-lactamase reporter gene, which is detected via assay of beta-lactamase activity.
# Cells are harvested and diluted into assay medium containing phenol red-free DMEM supplemented with 2% Charcoal-stripped FBS, pyruvate, non-essential amino acids. Cells are then transferred to a 384 well assay plate. Test compounds are dissolved in DMSO and a 3-fold serial dilution series is generated, then further diluted into assay medium. Compounds in assay medium are added to cells in the 384 well plate and allowed to incubate 16 h at 37 C in the presence of 5% CO2.
# A FRET-based […] is loaded into cells as its acetomethoxy ester. Intracellular esterases liberate free CCF4, a cephalosporin core linking 7-hydroxycoumarin to fluorescein. In the presence of beta-lactamase activity produced in the presence of FXR agonists, cleavage of CCF4 spatially separates the two dyes and disrupts FRET, so that exciting the coumarin at 409 nm now produces a blue fluorescence signal at 447 nm. The change in FRET signal is plotted against the test compound concentration and fit to a 3-parameter logistical equation. The concentration required to produce 50% activation is expressed as pEC50 (−log EC50), and the extent of activation is expressed relative to GW4064 as % activation.
# ligand binding domain of human FXR, sequence (Q96RI1 262-486): as the sequence (Q96RI1 262-486, stated change not applied) above
SMILES,pEC50 [1],Emax [1] [%],Emax [2] [%],EC50 [2] [nM]
"O=C(O)c1cc(F)c2nc(N3C[C@@H]4C[C@H]3C[C@H]4OCc3c(-c4c(Cl)cc(O)cc4Cl)noc3C3CC3)sc2c1 [Compound I-287, 2-[(1S,4S,5R)-5-{[5-cyclopropyl-3-(2,6-dichloro-4-hydroxyphenyl)-1,2-oxazol-4-yl]methoxy}-2-azabicyclo[2.2.1]heptan-2-yl]-4-fluoro-1,3-benzothiazole-6-carboxylic Acid]",9.2,134,113,63.1
"O=C(O)c1cc(OC2CC2)c2nc(N3C[C@@H]4C[C@H]3C[C@H]4OCc3c(-c4c(Cl)cccc4Cl)noc3C3CC3)sc2c1 [Compound I-259, 4-cyclopropoxy-2-[(1S,4S,5R)-5-{[5-cyclopropyl-3-(2,6-dichlorophenyl)-1,2-oxazol-4-yl]methoxy}-2-azabicyclo[2.2.1]heptan-2-yl]-1,3-benzothiazole-6-carboxylic Acid]",8.5,124,114,0.1
"CCOc1cc(C(=O)O)cc2sc(N3C[C@@H]4C[C@H]3C[C@H]4OC(=O)c3c(-c4c(Cl)cccc4Cl)noc3C3CC3)nc12 [Compound I-8, 2-[(1S,4S,5R)-5-[5-cyclopropyl-3-(2,6-dichlorophenyl)-1,2-oxazole-4-carbonyloxy]-2-azabicyclo[2.2.1]heptan-2-yl]-4-ethoxy-1,3-benzothiazole-6-carboxylic acid]",7.6,137,106,2.51
"O=C(O)c1ccc(N2C(=O)[C@@H]3C[C@H]2C[C@H]3OCc2c(-c3c(F)cccc3Cl)noc2C2CC2)cc1 [Compound I-306, 4-[(1S,4R,5R)-5-{[3-(2-chloro-6-fluorophenyl)-5-cyclopropyl-1,2-oxazol-4-yl]methoxy}-3-oxo-2-azabicyclo[2.2.1]heptan-2-yl]benzoic Acid]",8.2,171,108,2.51
"C[C@@H]1[C@@H]2C[C@@H](C[C@H]2OCc2c(-c3c(Cl)cccc3Cl)noc2C2CC2)N1c1ccc(C(=O)O)cc1 [Compound I-360, 4-[(1S,3R,4S,5R)-5-[[5-cyclopropyl-3-(2,6-dichlorophenyl)-1,2-oxazol-4-yl]methoxy]-3-methyl-2-azabicyclo[2.2.1]heptan-2-yl]benzoic acid]",8.6,117,102,0.794
"O=C(O)c1cc([C@@H]2CCOC2)c2nc(N3C[C@@H]4C[C@H]3C[C@H]4OCc3c(-c4c(F)cccc4Cl)noc3C3CC3)sc2c1 [Compound I-266, 2-((1S,4S,5R)-5-((3-(2-chloro-6-fluorophenyl)-5-cyclopropylisoxazol-4-yl)methoxy)-2-azabicyclo[2.2.1]heptan-2-yl)-4-((S)-tetrahydrofuran-3-yl)benzo[d]thiazole-6-carboxylic Acid]",8.6,139,105,0.251
"CCc1cc(N2C(=O)[C@@H]3C[C@H]2C[C@H]3OCc2c(-c3c(Cl)cccc3Cl)noc2C2CC2)ccc1C(=O)O [Compound I-318, 4-[(1S,4R,5R)-5-{[5-cyclopropyl-3-(2,6-dichlorophenyl)-1,2-oxazol-4-yl]methoxy}-3-oxo-2-azabicyclo[2.2.1]heptan-2-yl]-2-ethylbenzoic Acid]",7.2,127,116,6.31
"Fc1cc(-c2nn[nH]n2)ccc1N1C[C@@H]2C[C@H]1C[C@H]2OCc1c(-c2c(Cl)cccc2Cl)noc1C1CC1 [Compound I-134, (1S,4S,5R)-5-{[5-cyclopropyl-3-(2,6-dichlorophenyl)-1,2-oxazol-4-yl]methoxy}-2-[2-fluoro-4-(2H-1,2,3,4-tetrazol-5-yl)phenyl]-2-azabicyclo[2.2.1]heptane]",8.2,156,104,0.794
"O=C(O)c1ccc(N2C[C@@H]3C[C@H]2C[C@H]3OCc2c(-c3c(Cl)cccc3Cl)noc2C2CC2)c(C(F)(F)F)c1 [Compound I-106, 4-((1S,4S,5R)-5-((5-cyclopropyl-3-(2,6-dichlorophenyl)isoxazol-4-yl)methoxy)-2-azabicyclo[2.2.1]heptan-2-yl)-3-(trifluoromethyl)benzoic acid]",8.6,126,106,0.631
"Cc1cccc(Cl)c1-c1noc(C2CC2)c1CO[C@@H]1C[C@@H]2C[C@H]1CN2c1ccc(CCC(=O)O)cc1F [Compound I-159, 3-{4-[(1S,4S,5R)-5-{[3-(2-chloro-6-methylphenyl)-5-cyclopropyl-1,2-oxazol-4-yl]methoxy}-2-azabicyclo[2.2.1]heptan-2-yl]-3-fluorophenyl}propanoic Acid]",8.2,144,100,1.58
"O=C1OCc2cc(N3C[C@@H]4C[C@H]3C[C@H]4OCc3c(-c4c(Cl)cccc4Cl)noc3C3CC3)ccc21 [Compound I-141, 5-[(1S,4S,5R)-5-{[5-cyclopropyl-3-(2,6-dichlorophenyl)-1,2-oxazol-4-yl]methoxy}-2-azabicyclo[2.2.1]heptan-2-yl]-1,3-dihydro-2-benzofuran-1-one]",7,137,106,63.1
"O=C(NS(=O)(=O)CC1CCOC1)c1ccc(N2C(=O)[C@@H]3C[C@H]2C[C@H]3OCc2c(-c3c(Cl)cccc3Cl)noc2C2CC2)cc1F (stereo partly drawn) [Compound I-335, 4-((1S,4R,5R)-5-((5-cyclopropyl-3-(2,6-dichlorophenyl)isoxazol-4-yl)methoxy)-3-oxo-2-azabicyclo[2.2.1]heptan-2-yl)-2-fluoro-N-(((tetrahydrofuran-3-yl)methyl)sulfonyl)benzamide]",8.8,172,108,1
"O=C(O)c1cc(OC2CC2)c2nc(N3C[C@@H]4C[C@H]3C[C@H]4OCc3c(-c4c(F)cccc4Cl)noc3C3CC3)sc2c1 [Compound I-263, 2-((1S,4S,5R)-5-((3-(2-chloro-6-fluorophenyl)-5-cyclopropylisoxazol-4-yl)methoxy)-2-azabicyclo[2.2.1]heptan-2-yl)-4-cyclopropoxybenzo[d]thiazole-6-carboxylic acid]",8.6,150,109,0.1
"O=C(O)c1cc(F)c2nc(N3C[C@@H]4C[C@H]3C[C@H]4OCc3c(-c4cccc(O)c4)noc3C3CC3)sc2c1 [Compound I-292, 2-((1S,4S,5R)-5-((5-cyclopropyl-3-(3-hydroxyphenyl)isoxazol-4-yl)methoxy)-2-azabicyclo[2.2.1]heptan-2-yl)-4-fluorobenzo[d]thiazole-6-carboxylic acid]",6.5,120,,< 31.6
"O=C(NS(=O)(=O)CCO)c1ccc(N2C[C@@H]3C[C@H]2C[C@H]3OCc2c(-c3c(Cl)cccc3Cl)noc2C2CC2)cc1 [Compound I-210, 4-[(1S,4S,5R)-5-{[5-cyclopropyl-3-(2,6-dichlorophenyl)-1,2-oxazol-4-yl]methoxy}-2-azabicyclo[2.2.1]heptan-2-yl]-N-(2-hydroxyethanesulfonyl)benzamide]",8.6,148,,< 31.6
"Cc1cc(C(=O)O)ccc1N1C[C@@H]2C[C@H]1C[C@H]2OCc1c(-c2c(Cl)cccc2Cl)noc1C1CC1 [Compound I-107, 4-((1S,4S,5R)-5-((5-cyclopropyl-3-(2,6-dichlorophenyl)isoxazol-4-yl)methoxy)-2-azabicyclo[2.2.1]heptan-2-yl)-3-methylbenzoic acid]",8.6,122,102,1
"Cn1nc(C(=O)O)cc1N1C[C@@H]2C[C@H]1C[C@H]2OCc1c(-c2c(Cl)cccc2Cl)noc1C1CC1 [Compound I-180, 5-[(1S,4S,5R)-5-[[5-cyclopropyl-3-(2,6-dichlorophenyl)-1,2-oxazol-4-yl]methoxy]-2-azabicyclo[2.2.1]heptan-2-yl]-1-methyl-1H-pyrazole-3-carboxylic acid]",>6.5,,,< 316
"O=C1NCc2cc(N3C[C@@H]4C[C@H]3C[C@H]4OCc3c(-c4c(Cl)cccc4Cl)noc3C3CC3)ccc21 [Compound I-135, 5-[(1S,4S,5R)-5-{[5-cyclopropyl-3-(2,6-dichlorophenyl)-1,2-oxazol-4-yl]methoxy}-2-azabicyclo[2.2.1]heptan-2-yl]-2,3-dihydro-1H-isoindol-1-one]",9.4,152,102,1

# Source: US10793568B2, “Hormone receptor modulators for treating metabolic conditions and disorders” (ARDELYX, INC., priority 2016, dated 2020)
